In PubChem BioAssay AID248 (DTP/NCI, 2004):
Values joined by “and” are separate entries in the source; they are usually repeats but may differ in a detail not shown here. Equal entries are not always repeated. Toxic doses and inconclusive results are not listed. No stated cut-off is given here; in the data, active means T/C of 150% or more; inactive means T/C below 125%.

System: L1210 leukemia ip in BDF1 mice, survival T/C
Experiment: NCI In Vivo Anticancer Drug Screen. Data for tumor model L1210 Leukemia (intraperitoneal) in B6D2F1 (BDF1) mice
Details: endpoint: mean survival time, higher = longer survival
How it was run: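 Mice bearing the transplanted tumor received compound or vehicle. Survival of the treated group was divided by that of the vehicle-treated control group to give the ratio.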

[1] = dose: 50.0 mg/kg/injection, schedule: Q01DX009 (ip), vehicle: other
[2] = dose: 100.0 mg/kg/injection, schedule: Q01DX009 (ip), vehicle: other
[3] = dose: 100.0 mg/kg/injection, schedule: Q01DX009 (ip), vehicle: saline
[4] = dose: 200.0 mg/kg/injection, schedule: Q01DX009 (ip), vehicle: saline
[5] = dose: 400.0 mg/kg/injection, schedule: Q01DX009 (ip), vehicle: saline
[6] = dose: 100.0 mg/kg/injection, schedule: Q04DX003 (ip), vehicle: saline with Tween-80
[7] = dose: 200.0 mg/kg/injection, schedule: Q04DX003 (ip), vehicle: saline with Tween-80
[8] = dose: 400.0 mg/kg/injection, schedule: Q04DX003 (ip), vehicle: saline with Tween-80

Measured: T/C

CCCC(=O)Nc1ccc(N)cc1OC
inactive: dose: 5.0 mg/kg/injection, schedule: Q01DX009 (ip), vehicle: saline 100 % of control | dose: 5.0 mg/kg/injection, schedule: Q04DX003 (ip), vehicle: Klucel (hydroxypropylcellulose) (HPC) 96 % of control | dose: 10.0 mg/kg/injection, schedule: Q01DX009 (ip), vehicle: saline 100 % of control | dose: 10.0 mg/kg/injection, schedule: Q04DX003 (ip), vehicle: Klucel (hydroxypropylcellulose) (HPC) 102 % of control | dose: 20.0 mg/kg/injection, schedule: Q01DX009 (ip), vehicle: saline 100 % of control | dose: 20.0 mg/kg/injection, schedule: Q04DX003 (ip), vehicle: Klucel (hydroxypropylcellulose) (HPC) 96 % of control

CN(CSc1c(Cl)c(Cl)c(Cl)c(Cl)c1Cl)c1ccccc1
inactive: dose: 100.0 mg/kg/injection, schedule: Q04DX002 (ip), vehicle: Klucel (hydroxypropylcellulose) (HPC) 103 % of control | dose: 200.0 mg/kg/injection, schedule: Q04DX002 (ip), vehicle: Klucel (hydroxypropylcellulose) (HPC) 98 % of control | dose: 400.0 mg/kg/injection, schedule: Q04DX002 (ip), vehicle: Klucel (hydroxypropylcellulose) (HPC) 93 % of control

CCCCN1C(=O)c2ccccc2C1=O
inactive: dose: 100.0 mg/kg/injection, schedule: Q04DX003 (ip), vehicle: carboxymethylcellulose (CMC) 102 % of control | dose: 200.0 mg/kg/injection, schedule: Q04DX003 (ip), vehicle: carboxymethylcellulose (CMC) 93 % of control | dose: 400.0 mg/kg/injection, schedule: Q04DX003 (ip), vehicle: carboxymethylcellulose (CMC) 101 % of control

C[NH-].C[NH-].[Cl][Pt+2][Cl]
active: dose: 12.0 mg/kg/injection, schedule: Q04DX003 (ip), vehicle: saline with Tween-80 164 % of control
inactive: dose: 0.38 mg/kg/injection, schedule: Q03HX024 (ip), vehicle: water 111 % of control | dose: 0.75 mg/kg/injection, schedule: Q03HX024 (ip), vehicle: water 109 % of control | dose: 1.0 mg/kg/injection, schedule: Q01DX009 (ip), vehicle: other 108 % of control | dose: 1.5 mg/kg/injection, schedule: Q03HX024 (ip), vehicle: water 107 % of control | dose: 1.56 mg/kg/injection, schedule: Q03HX008 (ip), vehicle: water 106 % of control | dose: 2.0 mg/kg/injection, schedule: Q01DX001 (ip), vehicle: other 108 % of control | dose: 2.0 mg/kg/injection, schedule: Q01DX009 (ip), vehicle: other 122 % of control | dose: 2.5 mg/kg/injection, schedule: Q01DX009 (ip), vehicle: water 110 % of control | dose: 2.6 mg/kg/injection, schedule: Q01DX009 (ip), vehicle: saline with Tween-80 113 % of control | dose: 3.0 mg/kg/injection, schedule: Q04DX003 (ip), vehicle: water 116 % of control | dose: 3.13 mg/kg/injection, schedule: Q03HX008 (ip), vehicle: water 115 % of control | dose: 4.0 mg/kg/injection, schedule: Q01DX001 (ip), vehicle: other 95 % of control | dose: 4.0 mg/kg/injection, schedule: Q01DX009 (ip), vehicle: other 116 % of control | dose: 4.0 mg/kg/injection, schedule: Q01DX009 (ip), vehicle: saline with Tween-80 124 % of control | dose: 5.0 mg/kg/injection, schedule: Q04DX003 (ip), vehicle: saline with Tween-80 115 % of control and 120 % of control | dose: 6.0 mg/kg/injection, schedule: Q04DX003 (ip), vehicle: water 123 % of control | dose: 8.0 mg/kg/injection, schedule: Q01DX001 (ip), vehicle: other 105 % of control | dose: 8.0 mg/kg/injection, schedule: Q04DX003 (ip), vehicle: saline with Tween-80 123 % of control | dose: 9.0 mg/kg/injection, schedule: Q01DX009 (ip), vehicle: saline with Tween-80 108 % of control | dose: 12.5 mg/kg/injection, schedule: Q01DX009 (ip), vehicle: saline with Tween-80 98 % of control and 90 % of control | dose: 16.0 mg/kg/injection, schedule: Q01DX001 (ip), vehicle: other 123 % of control | dose: 16.0 mg/kg/injection, schedule: Q01DX009 (ip), vehicle: other 90 % of control | dose: 25.0 mg/kg/injection, schedule: Q01DX001 (ip), vehicle: water 120 % of control | dose: 32.0 mg/kg/injection, schedule: Q01DX001 (ip), vehicle: other 119 % of control | dose: 50.0 mg/kg/injection, schedule: Q04DX003 (ip), vehicle: saline with Tween-80 88 % of control

O=C(O)COCc1ccccc1
inactive: dose: 100.0 mg/kg/injection, schedule: Q04DX003 (ip), vehicle: saline sonified 97 % of control | dose: 200.0 mg/kg/injection, schedule: Q04DX003 (ip), vehicle: saline sonified 92 % of control | dose: 400.0 mg/kg/injection, schedule: Q04DX003 (ip), vehicle: saline sonified 92 % of control

CCCCCCC(=O)/C=C\c1ccc([N+](C)(C)C)cc1
inactive: dose: 25.0 mg/kg/injection, schedule: Q01DX009 (sc), vehicle: steriod suspending solution 93 % of control | dose: 25.0 mg/kg/injection, schedule: Q04DX003 (sc), vehicle: steriod suspending solution 94 % of control | dose: 50.0 mg/kg/injection, schedule: Q01DX009 (sc), vehicle: steriod suspending solution 97 % of control | dose: 50.0 mg/kg/injection, schedule: Q04DX003 (sc), vehicle: steriod suspending solution 92 % of control | dose: 100.0 mg/kg/injection, schedule: Q01DX001 (sc), vehicle: steriod suspending solution 86 % of control | dose: 100.0 mg/kg/injection, schedule: Q04DX003 (sc), vehicle: steriod suspending solution 106 % of control

NC1(C(=O)O)C2CC3CC(C2)CC1C3 (stereo unspecified)
inactive: [1] 100 % of control | [2] 105 % of control | dose: 100.0 mg/kg/injection, schedule: Q04DX003 (ip), vehicle: alcohol 96 % of control | dose: 200.0 mg/kg/injection, schedule: Q01DX009 (ip), vehicle: other 92 % of control | dose: 200.0 mg/kg/injection, schedule: Q04DX003 (ip), vehicle: alcohol 95 % of control

CCCCCCCCCCCCNC(=O)c1ccccc1O
inactive: [1] 96 % of control | [2] 91 % of control | dose: 400.0 mg/kg/injection, schedule: Q01DX009 (ip), vehicle: other 101 % of control

Nc1ncnc2c1ncn2CCCNC(=O)c1cc([N+](=O)[O-])cc([N+](=O)[O-])c1
inactive: [3] 103 % of control | [4] 96 % of control | [5] 90 % of control

Cc1cc(=O)n(C)c2c(C)cccc12
inactive: [6] 101 % of control | [7] 98 % of control | [8] 98 % of control

N#Cc1nc2c(nc1N)CCCCCCCCCC2
inactive: dose: 100.0 mg/kg/injection, schedule: Q01DX001 (ip), vehicle: Klucel (hydroxypropylcellulose) (HPC) 96 % of control | dose: 400.0 mg/kg/injection, schedule: Q01DX001 (ip), vehicle: Klucel (hydroxypropylcellulose) (HPC) 92 % of control

c1ccc2c(c1)OCCOCCOc1ccccc1OCCOCCO2
inactive: [3] 98 % of control and 89 % of control | dose: 100.0 mg/kg/injection, schedule: Q04DX003 (ip), vehicle: saline 94 % of control and 92 % of control | [4] 101 % of control and 92 % of control | dose: 200.0 mg/kg/injection, schedule: Q04DX003 (ip), vehicle: saline 93 % of control and 92 % of control | [5] 94 % of control and 91 % of control | dose: 400.0 mg/kg/injection, schedule: Q04DX003 (ip), vehicle: saline 89 % of control and 90 % of control

COc1ccc(C(CCl)(CCl)c2ccc(OC)c(C)c2)cc1C
inactive: dose: 100.0 mg/kg/injection, schedule: Q01DX009 (ip), vehicle: saline with Tween-80 90 % of control | [6] 100 % of control | dose: 200.0 mg/kg/injection, schedule: Q01DX009 (ip), vehicle: saline with Tween-80 96 % of control | [7] 94 % of control | dose: 400.0 mg/kg/injection, schedule: Q01DX009 (ip), vehicle: saline with Tween-80 86 % of control | [8] 92 % of control

CCOC(=O)N/N=C\C(C)=N\NC(=O)OCC
inactive: dose: 15.0 mg/kg/injection, schedule: Q01DX Z (ip), vehicle: carboxymethylcellulose (CMC) 105 % of control | dose: 30.0 mg/kg/injection, schedule: Q01DX Z (ip), vehicle: carboxymethylcellulose (CMC) 98 % of control | dose: 60.0 mg/kg/injection, schedule: Q01DX Z (ip), vehicle: carboxymethylcellulose (CMC) 97 % of control and 105 % of control | dose: 120.0 mg/kg/injection, schedule: Q01DX Z (ip), vehicle: carboxymethylcellulose (CMC) 94 % of control and 97 % of control | dose: 240.0 mg/kg/injection, schedule: Q01DX Z (ip), vehicle: carboxymethylcellulose (CMC) 96 % of control | dose: 480.0 mg/kg/injection, schedule: Q01DX Z (ip), vehicle: carboxymethylcellulose (CMC) 87 % of control
